# From article PMC7915026, “Sulfaguanidine Hybrid with Some New Pyridine-2-One Derivatives: Design, Synthesis, and Antimicrobial Activity against Multidrug-Resistant Bacteria as Dual DNA Gyrase and DHFR Inhibitors” (Antibiotics, 2021)
# Columns and labels:
# neutrophils = assay: In vitro intracellular killing, nitro blue tetrazolium (NBT) reduction assay; type: cell-based
# Protocol: One of the broad methods used for determining immune disorders for patients in hospitals is the NBT test to measure their immune responses. The reduction in NBT dye provides information about the phagocytic and intracellular killing functions of neutrophils, which are important for microbiocidal activity. The most promising derivatives (2a, 2b, 2d, 3a, 8, and 11) were evaluated against in vitro intracellular killing activities using a nitro blue tetrazolium (NBT) reduction assay and the obtained results expressed in percentage (%): increasing the percentage led to an improvement in the killing ability of the neutrophils used as innate immunity.
# In vitro intracellular killing activities for the most promising six derivatives 2a, 2b, 2d, 3a, 8, and 11 were performed according to reported methods.
# [1] = test system: P. aeruginosa ATCC BAA-2111; assay: Inhibition zone against multidrug-resistant bacteria; further: test concentration or dose not given here; type: cell-based; conditions: MDRB P. aeruginosa ATCC BAA-2111
# Description: (§1) Norfloxacin was used as a positive control for the multidrug resistance study.
# (§2) The antimicrobial activity performed at the bacteriology laboratory, Botany and Microbiology Department, Faculty of Science, Al-Azhar University, Cairo, Egypt. The inhibition zone (IZ) of the tested derivatives expressed as the diameter (mm) according to the agar plate diffusion method.
# S. aureus ATCC 43300 [2] = assay: as above; type: cell-based; conditions: MDRB S. aureus ATCC 43300
# Description: as §1, §2
# S. aureus ATCC 33591 [3] = assay: as above; type: cell-based; conditions: MDRB S. aureus ATCC 33591
# Description: as §1, §2
# E. coli ATCC BAA-196 [4] = assay: as above; type: cell-based; conditions: MDRB E. coli ATCC BAA-196
# Description: as §1, §2
# E. faecalis ATCC 29212 [5] = assay: MIC and MBC determination; type: cell-based; conditions: Enterococcus faecalis, ATCC29212, E. faecalis
# P. aeruginosa ATCC 27853 = assay: MIC and MBC determination; type: cell-based; conditions: Pseudomonas aeruginosa, ATCC27853, P. aeruginosa
# [6] = test system: Salmonella typhi (S. typhi ATCC 6539); assay: microbe, parasite or virus in culture; type: cell-based; conditions: Salmonella enterica, Salmonella typhi
# B. subtilis ATCC 6633 = assay: MIC and MBC determination; type: cell-based; conditions: Bacillus subtilis, ATCC6633, B. subtilis
# C. albicans (ATCC 10231) [7] = assay: Inhibition zone, paper disk/agar diffusion; type: cell-based; conditions: Na = no activity
# Description: as §2
# S. typhi ATCC 6539 = assay: Inhibition zone, paper disk/agar diffusion; type: cell-based; conditions: S. typhi; Na = no activity
# Description: as §2
# E. coli ATCC 25922 [8] = assay: Inhibition zone, paper disk/agar diffusion; type: cell-based; conditions: E. coli; Na = no activity
# Description: as §2
# S. aureus ATCC 29213 [9] = assay: Inhibition zone, paper disk/agar diffusion; further: test concentration or dose not given here; type: cell-based; conditions: S. aureus; Na = no activity
# Description: as §2
# E. faecalis ATCC 29212 [10] = assay: Inhibition zone, paper disk/agar diffusion; further: test concentration or dose not given here; type: cell-based; conditions: E. faecalis; Na = no activity
# Description: as §2
# [11] = test system: F. oxysporum (RCMB 008002); assay: Inhibition zone, paper disk/agar diffusion; type: cell-based; conditions: Na = no activity; further: test concentration or dose not given here
# Description: as §2
# C. albicans (ATCC 10231) [12] = assay: MIC and MFC determination; type: cell-based
# S. aureus ATCC 29213 [13] = assay: MIC and MBC determination; type: cell-based; conditions: Staphylococcus aureus, ATCC29213, S. aureus
# [14] = target: E. coli DHFR (dihydrofolate reductase) (Escherichia coli, UniProt P0ABQ4); assay: In vitro DHFR enzymatic assay; type: biochemical
# Chain of E. coli DHFR (dihydrofolate reductase) (P0ABQ4 whole entry): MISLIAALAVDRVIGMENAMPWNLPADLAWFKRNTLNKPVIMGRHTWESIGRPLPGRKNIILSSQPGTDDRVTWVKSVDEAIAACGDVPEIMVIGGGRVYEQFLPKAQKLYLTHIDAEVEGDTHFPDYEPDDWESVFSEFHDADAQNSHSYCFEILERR
# S. aureus DNA gyrase = S. aureus DNA gyrase (Staphylococcus aureus, UniProt P0A0K8+P20831); assay: In vitro DNA gyrase supercoiling enzymatic assay; type: biochemical
# Chain of S. aureus DNA gyrase (P20831 whole entry): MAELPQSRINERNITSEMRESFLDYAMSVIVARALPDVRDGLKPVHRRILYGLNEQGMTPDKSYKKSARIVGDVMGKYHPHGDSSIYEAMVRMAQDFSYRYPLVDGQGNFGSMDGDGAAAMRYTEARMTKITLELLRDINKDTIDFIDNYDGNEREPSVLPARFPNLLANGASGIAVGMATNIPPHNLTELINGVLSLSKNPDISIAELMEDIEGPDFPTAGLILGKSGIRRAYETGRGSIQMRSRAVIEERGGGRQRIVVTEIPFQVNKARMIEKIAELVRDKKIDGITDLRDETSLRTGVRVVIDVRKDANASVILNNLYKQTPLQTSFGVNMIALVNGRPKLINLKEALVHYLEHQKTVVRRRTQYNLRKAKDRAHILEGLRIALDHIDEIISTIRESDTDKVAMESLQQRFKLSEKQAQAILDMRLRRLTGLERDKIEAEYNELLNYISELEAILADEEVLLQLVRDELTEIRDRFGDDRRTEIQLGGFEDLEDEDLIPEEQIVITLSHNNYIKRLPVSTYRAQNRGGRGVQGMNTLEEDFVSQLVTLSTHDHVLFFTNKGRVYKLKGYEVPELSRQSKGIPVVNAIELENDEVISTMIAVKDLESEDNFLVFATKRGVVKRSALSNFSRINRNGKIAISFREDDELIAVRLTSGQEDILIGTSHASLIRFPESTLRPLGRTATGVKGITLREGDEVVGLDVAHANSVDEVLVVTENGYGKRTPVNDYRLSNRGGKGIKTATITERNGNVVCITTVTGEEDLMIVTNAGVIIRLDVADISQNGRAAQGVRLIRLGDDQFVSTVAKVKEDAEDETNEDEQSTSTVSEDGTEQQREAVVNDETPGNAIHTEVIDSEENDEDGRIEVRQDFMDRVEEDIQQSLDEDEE
# Chain of S. aureus DNA gyrase (P0A0K8 whole entry): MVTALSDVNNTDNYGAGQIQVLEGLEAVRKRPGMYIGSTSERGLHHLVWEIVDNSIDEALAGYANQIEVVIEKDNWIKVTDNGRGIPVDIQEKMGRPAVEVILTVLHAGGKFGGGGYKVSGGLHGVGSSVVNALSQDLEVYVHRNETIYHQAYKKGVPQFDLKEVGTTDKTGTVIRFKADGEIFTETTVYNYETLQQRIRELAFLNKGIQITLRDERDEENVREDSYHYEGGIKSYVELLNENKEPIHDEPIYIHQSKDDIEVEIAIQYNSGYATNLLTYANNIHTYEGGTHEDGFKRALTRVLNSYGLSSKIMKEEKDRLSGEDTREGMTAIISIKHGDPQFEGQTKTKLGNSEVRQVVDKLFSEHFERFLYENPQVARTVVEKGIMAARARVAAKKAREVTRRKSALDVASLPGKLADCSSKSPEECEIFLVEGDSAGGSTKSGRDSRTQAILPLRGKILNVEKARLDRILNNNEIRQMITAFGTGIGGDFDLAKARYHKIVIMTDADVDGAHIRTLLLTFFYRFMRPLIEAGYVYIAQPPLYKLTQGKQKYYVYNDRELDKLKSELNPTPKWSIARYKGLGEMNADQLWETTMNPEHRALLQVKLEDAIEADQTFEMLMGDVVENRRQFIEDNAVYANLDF
# [15] = test system: F. oxysporum (RCMB 008002); assay: MIC and MFC determination; type: cell-based
# E. coli ATCC 25922 [16] = assay: MIC and MBC determination; type: cell-based; conditions: Escherichia coli, ATCC25922, E. coli
# [17] = test system: P. aeruginosa ATCC BAA-2111; assay: MIC and MBC against multidrug-resistant strains; type: cell-based; conditions: Pseudomonas aeruginosa, ATCCBAA2111
# Description: as §1
# (§3) The experiment was repeating for three-times.
# S. aureus ATCC 43300 [18] = assay: MIC and MBC against multidrug-resistant strains; type: cell-based; conditions: Staphylococcus aureus, ATCC43300
# Description: as §1, §3
# S. aureus ATCC 33591 [19] = assay: MIC and MBC against multidrug-resistant strains; type: cell-based; conditions: Staphylococcus aureus, ATCC33591
# Description: as §1, §3
# E. coli ATCC BAA-196 [20] = assay: MIC and MBC against multidrug-resistant strains; type: cell-based; conditions: Escherichia coli, ATCCBAA196
# Description: as §1, §3
# Wherever Mean Diameter of Inhibition Zone is given: test concentration or dose not given here.
smiles,measurement,setting,value
"N#CC(=Cc1ccc(Cl)cc1)C(=O)Nc1ccc(S(=O)(=O)NC(=N)N)cc1 [Compound 2a, N-(4-(N-Carbamimidoylsulfamoyl)phenyl)-3-(4-chlorophenyl)-2-cyanoacrylamide]",Intracellular Killing Activity,neutrophils,82.8 ± 0.37%
same,Mean Diameter of Inhibition Zone,[1],24 ± 0.18 mm
same,Mean Diameter of Inhibition Zone,S. aureus ATCC 43300 [2],23 ± 0.11 mm
same,Mean Diameter of Inhibition Zone,S. aureus ATCC 33591 [3],25 ± 0.33 mm
same,Mean Diameter of Inhibition Zone,E. coli ATCC BAA-196 [4],23 ± 0.94 mm
same,MBC,E. faecalis ATCC 29212 [5]; read-out: MBC,38.7 ± 0.65 µM
same,MIC,E. faecalis ATCC 29212 [5]; read-out: MIC,19.3 ± 0.65 µM
same,MBC,P. aeruginosa ATCC 27853; read-out: MBC,219.9 ± 1.54 µM
same,MIC,P. aeruginosa ATCC 27853; read-out: MIC,137 ± 2.12 µM
same,MBC,[6]; read-out: MBC,139 ± 1.63 µM
same,MIC,[6]; read-out: MIC,77.4 ± 1.06 µM
same,MBC,B. subtilis ATCC 6633; read-out: MBC,45.8 ± 1.65 µM
same,MIC,B. subtilis ATCC 6633; read-out: MIC,22.9 ± 1.02 µM
same,Mean Diameter of the Inhibition Zone,C. albicans (ATCC 10231) [7],25 ± 0.33 mm
same,Mean Diameter of the Inhibition Zone,S. typhi ATCC 6539,23 ± 0.65 mm
same,Mean Diameter of the Inhibition Zone,E. coli ATCC 25922 [8],26 ± 0.11 mm
same,Mean Diameter of the Inhibition Zone,S. aureus ATCC 29213 [9],25 ± 0.77 mm
same,Mean Diameter of the Inhibition Zone,E. faecalis ATCC 29212 [10],23 ± 0.65 mm
same,Mean Diameter of the Inhibition Zone,[11],21 ± 0.16 mm
same,MFC/MIC,C. albicans (ATCC 10231) [12],<2
same,MFC,"C. albicans (ATCC 10231) [12]; Candida albicans, ATCC10231, read-out: MFC",103.1 ± 1.02 µM
same,MIC,"C. albicans (ATCC 10231) [12]; Candida albicans, ATCC10231, read-out: MIC",77.4 ± 0.85 µM
same,MBC,S. aureus ATCC 29213 [13]; read-out: MBC,132 ± 1.35 µM
same,MIC,S. aureus ATCC 29213 [13]; read-out: MIC,77.4 ± 2.65 µM
same,IC50,[14],5.54 ± 0.33 µM
same,IC50,S. aureus DNA gyrase,23.9 ± 1.22 µM
same,MFC/MIC,[15],<2
same,MFC,"[15]; Fusarium oxysporum, RCMB008002, read-out: MFC",217 ± 2.98 µM
same,MIC,"[15]; Fusarium oxysporum, RCMB008002, read-out: MIC",138 ± 1.69 µM
same,MBC,E. coli ATCC 25922 [16]; read-out: MBC,90.4 ± 0.98 µM
same,MIC,E. coli ATCC 25922 [16]; read-out: MIC,45.8 ± 0.98 µM
same,MBC,[17],21.3 ± 0.25 µM
same,MIC,[17],12.9 ± 0.65 µM
same,MBC,S. aureus ATCC 43300 [18],22 ± 0.65 µM
same,MIC,S. aureus ATCC 43300 [18],11 ± 0.25 µM
same,MBC,S. aureus ATCC 33591 [19],8.19 ± 0.26 µM
same,MIC,S. aureus ATCC 33591 [19],4.82 ± 0.24 µM
same,MBC,E. coli ATCC BAA-196 [20],29.4 ± 0.65 µM
same,MIC,E. coli ATCC BAA-196 [20],15.5 ± 0.26 µM
